# Patent US20090053168A1, “TREATMENTS OF B-CELL PROLIFERATIVE DISORDERS” (priority 2007, published 2009)
# Where two headings read alike, the source gives them in different places.
# Key:
# [1] = system: Farage (non-Hodgkin's B cell lymphoma) cells; test: Anti-proliferation assay (ATPLite, 72 h), Farage; type: cell-based; conditions: x dexamethasone
# [2] = system: GA-10 (Burkitt's lymphoma) cells; test: Anti-proliferation assay (ATPLite, 72 h), GA-10; type: cell-based; conditions: x dexamethasone
# MM.1S cells [3] = test: Anti-proliferation assay (ATPLite, 72 h), MM.1S; conditions: for IC50: read-out: IC50 (no IL-6); for activity and synergy in antiproliferation assays: RPMI-8226, H929, MM.1S and MM.1R MM cell lines; for percent inhibition of cell proliferation: DEX 0 nM; for percent inhibition of cell proliferation / synergy score: MM.1S; for synergy score: in combination with CGS-21680
# RPMI-8226 cells = test: Anti-proliferation assay (ATPLite, 72 h), RPMI-8226; type: cell-based; conditions: combination with dexamethasone; Loewe-based Synergy Score; 72 h
# H929 cells = test: Anti-proliferation assay (ATPLite, 72 h), H929; type: cell-based; conditions: combination with dexamethasone; Loewe-based Synergy Score; 72 h
# MM.1S cells [4] = system: MM.1S cells
# [5] = system: mantle cell lymphoma cell line Mino; test: Anti-proliferation assay (ATPLite, 72 h), Mino; type: cell-based, human
# Description: (§1) All of the cell lines were cultured in RPMI-1640 media supplemented with 10% FBS except OCI Ly10 cells (IMDM media supplemented with 20% human serum). The ANBL-6 cell line culture media also contained 10 ng/ml IL-6. MM.1S, MM.1R, SU-DHL6, Karpas 422, and OCI ly10 cells were provided by the Dana Farber Cancer Institute. ANBL-6 cells were provided by Bob Orlowsli (M.D. Anderson Cancer Research Center). H929, RPMI-8226, GA-10, Farage, Mino, JVM-13, Pfeiffer, Toledo, and Kusami-1 cells were from ATCC (Cat #'s CCL-155, CRL-9068, CRL-2392 CRL-2630, CRL-3000, CRL-3003, CRL-2632, CRL-2631, and CRL-2724 respectively). MOLP-8, OPM2, EJM, and KSM-12-PE cells were from DSMZ.
# (§2) Compounds were prepared in DMSO at 1000× the highest desired concentration. Master plates were generated consisting of serially diluted compounds in 2- or 3-fold dilutions in 384-well format. For single agent dose response curves, the master plates consisted of 9 individual compounds at 12 concentrations in 2- or 3-fold dilutions. For combination matrices, master plates consisted of individual compounds at 6 or 9 concentrations at 2- or 3-fold dilutions.
# (§3) The average untreated well value (avg. untreated wells) is the arithmetic mean of 40 wells from the same assay plate treated with vehicle alone. Negative inhibition values result from local variations in treated wells as compared to untreated wells.
# (§4) The uncertainty of each fitted parameter was estimated from the range over which the change in reduced chi-squared was less than one, or less than minimum reduced chi-squared if that minimum exceeded one, to allow for underestimated σI errors.
# (§5) Single agent curve data were used to define a dilution series for each compound to, be used for combination screening in a 6×6 matrix format. […] For compounds with no detectable single agent activity, a dilution factor of 4 was used, starting from the highest achievable concentration.
# (§6) The Loewe additivity model was used to quantify combination effects. Combinations were ranked initially by Additivity Excess Volume, which is defined as ADD Volume=ΣCX, CY(Idata−ILoewe). where ILoewe(CX,CY) is the inhibition that satisfies (CX/ECX)+(CY/ECY)=1, and ECX,Y are the effective concentrations at ILoewe for the single agent curves. A “Synergy Score” was also used, where the Synergy Score S=log fX log fY ΣIdata (Idata−ILoewe), summed over all non-single-agent concentration pairs, and where log fX,Y is the natural logarithm of the dilution factors used for each single agent.
# [6] = system: mantle cell lymphoma cell line JVM-13; test: Anti-proliferation assay (ATPLite, 72 h), JVM-13; type: cell-based, human
# Description: as §1, §2, §3, §4, §5, §6
# OPM2 cells = test: Anti-proliferation assay (ATPLite, 72 h), OPM2; type: cell-based, human; conditions: for synergy score: in combination with CGS-21680, OPM-8
# MOLP-8 cells = test: Anti-proliferation assay (ATPLite, 72 h), MOLP-8; type: cell-based; conditions: in combination with CGS-21680
# EJM cells = test: Anti-proliferation assay (ATPLite, 72 h), EJM; type: cell-based; conditions: in combination with CGS-21680
# ANBL-6 cells = test: Anti-proliferation assay (ATPLite, 72 h), ANBL-6; type: cell-based; conditions: in combination with CGS-21680
# KSM-12-PE cells = test: Anti-proliferation assay (ATPLite, 72 h), KSM-12-PE; type: cell-based; conditions: in combination with CGS-21680; KSM-12-PE
# [7] = Homo sapiens, MM1.S, read-out: percent inhibition of cell proliferation
compound,measurement,setting,value
"NCCNC(=O)Cc1ccc(NC(=O)Cc2ccc(Nc3ncnc4c3ncn4[C@@H]3O[C@H](CO)[C@@H](O)[C@H]3O)cc2)cc1 [ADAC, N-(4-(2-((4-(2-((2-aminoethyl)amino)-2-oxoethyl)phenyl)amino)-2-oxoethyl)phenyl)-Adenosine]",synergy score,[1],2.28
same,synergy score,[2],2.43
same,IC50,"MM.1S cells [3]; Homo sapiens, MM1.S",623 nM
same,inhibition at 1.17 µM,MM.1S cells [3]; [7],80%
same,inhibition at 3.51 µM,MM.1S cells [3]; [7],75%
same,inhibition at 10.5 µM,MM.1S cells [3]; [7],82%
same,inhibition at 31.6 µM,MM.1S cells [3]; [7],82%
same,activity and synergy in antiproliferation assays,MM.1S cells [3],active and synergistic
"CNC(=O)[C@H]1O[C@@H](n2cnc3c(NCc4cccc(I)c4)nc(Cl)nc32)[C@H](O)[C@@H]1O [Chloro-IB-MECA, 2-chloro-N^6-(3-iodobenzyl)-5′-N-methylcarboxamidoadenosine]","Synergy score with dexamethasone, RPMI-8226",RPMI-8226 cells,5.61
same,"Synergy score with dexamethasone, H929",H929 cells,5.29
same,synergy score,[1],3.17
same,percent inhibition of cell proliferation,"MM.1S cells [3]; Cl-IB-MECA 0.352 nM, 72 h",16%
same,percent inhibition of cell proliferation,"MM.1S cells [3]; Cl-IB-MECA 1.06 nM, 72 h",5.9%
same,percent inhibition of cell proliferation,"MM.1S cells [3]; Cl-IB-MECA 3.16 nM, 72 h",6.3%
same,percent inhibition of cell proliferation,"MM.1S cells [3]; Cl-IB-MECA 9.49 nM, 72 h",9.1%
same,percent inhibition of cell proliferation,"MM.1S cells [3]; Cl-IB-MECA 28.5 nM, 72 h",−0.6%
same,percent inhibition of cell proliferation,"MM.1S cells [3]; Cl-IB-MECA 85.4 nM, 72 h",6.3%
same,percent inhibition of cell proliferation,"MM.1S cells [3]; Cl-IB-MECA 256 nM, 72 h",27%
same,percent inhibition of cell proliferation,"MM.1S cells [3]; Cl-IB-MECA 769 nM, 72 h",71%
same,IC50,"MM.1S cells [3]; Homo sapiens, MM1.S",838 nM
same,activity and synergy in antiproliferation assays,MM.1S cells [3],active and synergistic
same,"Synergy score with dexamethasone, MM.1S","MM.1S cells [3]; combination with dexamethasone, Loewe-based Synergy Score, 72 h",8.37
same,Percent inhibition of cell growth by Chloro-IB-MECA,"MM.1S cells [4]; Cl-IB-MECA 0.19 μM, 78 nM SCH58261",5.2%
same,Percent inhibition of cell growth by Chloro-IB-MECA,"MM.1S cells [4]; Cl-IB-MECA 0.19 μM, 87 nM MRS1523",19%
same,Percent inhibition of cell growth by Chloro-IB-MECA,"MM.1S cells [4]; Cl-IB-MECA 0.19 μM, 89 nM DPCPX",7.4%
same,Percent inhibition of cell growth by Chloro-IB-MECA,"MM.1S cells [4]; Cl-IB-MECA 0.19 μM, 89 nM MRS1754",25%
same,Percent inhibition of cell growth by Chloro-IB-MECA,"MM.1S cells [4]; Cl-IB-MECA 0.19 μM, 150 nM SCH58261",−3.8%
same,Percent inhibition of cell growth by Chloro-IB-MECA,"MM.1S cells [4]; Cl-IB-MECA 0.19 μM, 170 nM MRS1523",26%
same,Percent inhibition of cell growth by Chloro-IB-MECA,"MM.1S cells [4]; Cl-IB-MECA 0.19 μM, 174 nM DPCPX",12%
same,Percent inhibition of cell growth by Chloro-IB-MECA,"MM.1S cells [4]; Cl-IB-MECA 0.19 μM, 175 nM MRS1754",21%
same,Percent inhibition of cell growth by Chloro-IB-MECA,"MM.1S cells [4]; Cl-IB-MECA 0.19 μM, no antagonist",20%
same,Percent inhibition of cell growth by Chloro-IB-MECA,"MM.1S cells [4]; Cl-IB-MECA 1.5 μM, 78 nM SCH58261",8.1%
same,Percent inhibition of cell growth by Chloro-IB-MECA,"MM.1S cells [4]; Cl-IB-MECA 1.5 μM, 87 nM MRS1523",54%
same,Percent inhibition of cell growth by Chloro-IB-MECA,"MM.1S cells [4]; Cl-IB-MECA 1.5 μM, 89 nM DPCPX",47%
same,Percent inhibition of cell growth by Chloro-IB-MECA,"MM.1S cells [4]; Cl-IB-MECA 1.5 μM, 89 nM MRS1754",50%
same,Percent inhibition of cell growth by Chloro-IB-MECA,"MM.1S cells [4]; Cl-IB-MECA 1.5 μM, 150 nM SCH58261",4.3%
same,Percent inhibition of cell growth by Chloro-IB-MECA,"MM.1S cells [4]; Cl-IB-MECA 1.5 μM, 170 nM MRS1523",61%
same,Percent inhibition of cell growth by Chloro-IB-MECA,"MM.1S cells [4]; Cl-IB-MECA 1.5 μM, 174 nM DPCPX",46%
same,Percent inhibition of cell growth by Chloro-IB-MECA,"MM.1S cells [4]; Cl-IB-MECA 1.5 μM, 175 nM MRS1754",45%
same,Percent inhibition of cell growth by Chloro-IB-MECA,"MM.1S cells [4]; Cl-IB-MECA 1.5 μM, no antagonist",61%
same,Percent inhibition of cell growth by Chloro-IB-MECA,"MM.1S cells [4]; Cl-IB-MECA 3.1 μM, 78 nM SCH58261",28%
same,Percent inhibition of cell growth by Chloro-IB-MECA,"MM.1S cells [4]; Cl-IB-MECA 3.1 μM, 87 nM MRS1523",69%
same,Percent inhibition of cell growth by Chloro-IB-MECA,"MM.1S cells [4]; Cl-IB-MECA 3.1 μM, 89 nM DPCPX",64%
same,Percent inhibition of cell growth by Chloro-IB-MECA,"MM.1S cells [4]; Cl-IB-MECA 3.1 μM, 89 nM MRS1754",71%
same,Percent inhibition of cell growth by Chloro-IB-MECA,"MM.1S cells [4]; Cl-IB-MECA 3.1 μM, 150 nM SCH58261",16%
same,Percent inhibition of cell growth by Chloro-IB-MECA,"MM.1S cells [4]; Cl-IB-MECA 3.1 μM, 170 nM MRS1523",74%
same,Percent inhibition of cell growth by Chloro-IB-MECA,"MM.1S cells [4]; Cl-IB-MECA 3.1 μM, 174 nM DPCPX",60%
same,Percent inhibition of cell growth by Chloro-IB-MECA,"MM.1S cells [4]; Cl-IB-MECA 3.1 μM, 175 nM MRS1754",72%
same,Percent inhibition of cell growth by Chloro-IB-MECA,"MM.1S cells [4]; Cl-IB-MECA 3.1 μM, no antagonist",70%
COC1=C2C[C@@H](C)C[C@H](OC)[C@H](O)[C@@H](C)/C=C(\C)[C@H](OC(N)=O)[C@@H](OC)/C=C\C=C(/C)C(=O)NC(=CC1=O)C2=O [Geldanomycin],percent inhibition of cell proliferation,[5]; Geldanomycin 0.0064 μM alone,4.7%
same,percent inhibition of cell proliferation,[5]; Geldanomycin 0.019 μM alone,4.3%
same,percent inhibition of cell proliferation,[5]; Geldanomycin 0.057 μM alone,6.7%
same,percent inhibition of cell proliferation,[5]; Geldanomycin 0.17 μM alone,14%
same,percent inhibition of cell proliferation,[5]; Geldanomycin 0.52 μM alone,27%
same,percent inhibition of cell proliferation,[6]; Geldanomycin 0.0064 μM alone,−5.8%
same,percent inhibition of cell proliferation,[6]; Geldanomycin 0.019 μM alone,−7.8%
same,percent inhibition of cell proliferation,[6]; Geldanomycin 0.057 μM alone,7.6%
same,percent inhibition of cell proliferation,[6]; Geldanomycin 0.17 μM alone,12%
same,percent inhibition of cell proliferation,[6]; Geldanomycin 0.52 μM alone,19%
"CNC(=O)[C@H]1O[C@@H](n2cnc3c(NCc4cccc(I)c4)ncnc32)[C@H](O)[C@@H]1O [IB-MECA, N^6-(3-iodobenzyl)-5′-N-methylcarboxamidoadenosine]",synergy score,[1],2.91
same,synergy score,[2],2.23
same,activity and synergy in antiproliferation assays,MM.1S cells [3],active and synergistic
CC(/C=C/C(=O)NO)=C\[C@@H](C)C(=O)c1ccc(N(C)C)cc1 [Trichostatin A],percent inhibition of cell proliferation,OPM2 cells; Trichostatin A 0.0063 μM alone,13%
same,percent inhibition of cell proliferation,OPM2 cells; Trichostatin A 0.025 μM alone,48%
same,percent inhibition of cell proliferation,OPM2 cells; Trichostatin A 0.05 μM alone,76%
same,percent inhibition of cell proliferation,OPM2 cells; Trichostatin A 0.1 μM alone,99%
same,percent inhibition of cell proliferation,[5]; Trichostatin A 0.0063 μM alone,24%
same,percent inhibition of cell proliferation,[5]; Trichostatin A 0.025 μM alone,78%
same,percent inhibition of cell proliferation,[5]; Trichostatin A 0.05 μM alone,100%
same,percent inhibition of cell proliferation,[5]; Trichostatin A 0.1 μM alone,100%
COc1cccc2c1C(=O)c1c(O)c3c(c(O)c1C2=O)C[C@@](O)(C(=O)CO)C[C@@H]3O[C@H]1C[C@H](N)[C@H](O)[C@H](C)O1 [doxorubicin],synergy score,MOLP-8 cells,1.16
same,synergy score,OPM2 cells,0.46
same,synergy score,EJM cells,1.21
same,synergy score,ANBL-6 cells,2.54
same,synergy score,KSM-12-PE cells,0.81
same,synergy score,MM.1S cells [3],1.65
Nc1cccc2c1CN(C1CCC(=O)NC1=O)C2=O (stereo not shown) [lenalidomide],synergy score,MOLP-8 cells,1.65
same,synergy score,OPM2 cells,1.36
same,synergy score,EJM cells,0.32
same,synergy score,ANBL-6 cells,1.45
same,synergy score,KSM-12-PE cells,0.83
same,synergy score,MM.1S cells [3],4.87
